Values joined by “and” are separate entries in the source; they are usually repeats but may differ in a detail not shown here. Equal entries are not always repeated. Where two headings read alike, the source gives them in different places.
What was measured:
[1] = Ferric-ion-reducing antioxidant power (FRAP) assay; settings: ascorbic acid equivalents; sample stock 1 mg/mL; read at 593 nm after 30 min
Description: Working FRAP reagent was prepared in accordance with the method described previously. In a 96-well clear microplate (visible range), 10 μL of the stock solution (1 mg/mL, w/v) of the isolated compounds (C-1–C-7) and a methanol extract (HR) were mixed each with 300 μL FRAP reagent. The FRAP reagent was a mixture (10:1:1, v/v/v) of acetate buffer (300 mM, pH 3.6), tripyridyl triazine (TPTZ) (10 mM in 40 mM HCl), and FeCl3·6H2O (20 mM). After incubation at room temperature for 30 min, the plate was read at a wavelength of 593 nm on a Multiskan spectrum plate reader. L-Ascorbic acid was used as a standard with concentrations varying between 0 and 1000 μM. Further dilutions were carried out on the samples that were highly concentrated and such dilution factors were recorded and used for the calculations of the affected samples. The results were expressed as μM ascorbic acid equivalents per milligram dry weight (μM AAE/g) of the test samples.

[2] = tested on: Fe2+-induced lipid peroxidation in microsomes from an S9 liver fraction; assay: Inhibition of Fe(II)-induced microsomal lipid peroxidation (TBARS); assay type: biochemical; settings: TBARS at 532 nm, Table 2 head prints no unit, IC50 in µg/mL
Description: A previously described method was used with a few modifications. The reaction mixture contained microsomes (1 mg of protein/mL in 0.01 M potassium phosphate buffer; pH 7.4, supplemented with 1.15% KCl, m/v) isolated from an S9 liver fraction using a sepharose column. The positive control included microsomes, buffer, and ferrous sulphate, in the absence of the samples to be tested.
The sample stock solutions (HR and C-1–C-7) were prepared in methanol (1 mg/mL, w/v). The working sample solutions were prepared in 0.01M potassium phosphate buffer, pH 7.4, supplemented with 1.15% KCl (m/v) diluted to 26.750, 13.375, 6.688, 3.344, 1.672, and 0.836 µg/mL concentrations. A total of 100 µL of each sample (working solutions) was dissolved in potassium phosphate buffer and pre-incubated with 500 µL microsomes at 37 °C for 30 min in a shaking water bath. A total of 200 µL of KCl buffer was added to the mixture, followed by 200 µL of a 2.5 mM ferrous sulphate solution and incubated at 37 °C for 1 h in a shaking water bath. The reaction was terminated with 10% trichloroacetic acid (TCA, m/v) solution (1 mL) containing 125 µL butylated hydroxytoluene (BHT, 0.01%) and 1 mM ethylenediaminetetraacetic acid (EDTA). Samples were centrifuged at 2000 rpm for 15 min; 1 mL of supernatant was mixed with 1 mL of 0.67% thiobarbituric acid (TBA) solution. The reaction mixture was then incubated in a water bath at 90 °C for 20 min and the absorbance was measured at 532 nm using Multiskan plate reader. EGCG, dissolved in methanol, was used as positive control. The percentage inhibition of TBARS formation relative to the positive control was calculated by Acontrol−Asample/Acontrol×100
(§1) All skin enzyme inhibitory assays and Fe^2+-induced lipid peroxidation assay calculations, expressed as percentage inhibitions ± SD, were performed using MS Excel 2013, while the final values, expressed as IC50, were determined using GraphPad prism 5.0. The data presented are means ± SD obtained from 96-well plate readers for all in vitro experiments in triplicate. Differences between the means were considered to be significant if p < 0.05 according to Prism’s one-way ANOVA. The ORAC, FRAP, and TEAC values were determined using their respective templates. Correlation coefficients among the methods used for determining total antioxidant assays (FRAP, TEAC, and ORAC), as well as skin enzymes inhibitions (tyrosinase anf elastase), were determined using SPSS version 21. Values at p < 0.05 were considered significant.

[3] = molecular target: T1, elastase (Sus scrofa, UniProt P00772); assay: Elastase inhibition assay; assay type: biochemical, porcine
T1 construct: purchased Sigma-Aldrich CAS No. 39445-21-1 (catalogue number not given); host or cells: porcine pancreas
Description: Inhibition of elastase by the test samples was assayed using N-succ-(Ala)3-nitroanilide (SANA) as the substrate, monitoring the release of p-nitroanilide by the method described with little adjustment. The inhibitory activity determined the intensity of color released during cleavage of SANA by the action of elastase. The working reagent for anti-elastase assay was prepared in line with the literature. […] The sample stock solutions were prepared as 1 mg in 1 mL methanol. […] The mixtures were further incubated for 10 min and the absorbance was measured at 410 nm. […] The sample control involved the sample and SANA (uninhibited sample). The percentage of elastase inhibition was calculated as follows: 1−B/A×100
Elastase inhibition (%), where A is the enzyme activity without sample and B is the activity in the presence of the sample.
as §1, with “The” for “All skin enzyme inhibitory assays and Fe^2+-induced lipid peroxidation assay calculations, expressed as percentage inhibitions ± SD, were performed using MS Excel 2013, while the final values, expressed as IC50, were determined using GraphPad prism 5.0. The”

[4] = Trolox equivalent absorbance capacity (TEAC) assay; settings: trolox equivalents; sample stock 1 mg/mL; read at 734 nm after 30 min
Description: The total antioxidant activity of the test sample was measured using previously described methods. The stock solutions which contained 7 mM ABTS and 140 mM potassium-peroxodisulphate (K2S2O8) (Merck, Johannesburg, South Africa) were prepared and kept at −2 °C. The working solution was then prepared by adding 88 μL K2S2O8 solution to 5 mL ABTS solution. The two solutions were thoroughly mixed and allowed to react for 24 h at room temperature in the dark. Trolox (6-hydrox-2,5,7,8-tetramethylchroman-2-carboxylic acid) was used as the standard with concentrations ranging between 0 and 500 μM. After 24 h, the ABTS mix solution was diluted with ethanol to read a start-up absorbance (control) of approximately 2.0 (±0.1). The stock solution (1 mg/mL) of a methanol extract (HT) and purified compounds (25 μL) were allowed to react with 300 μL ABTS in the dark at room temperature for 30 min. The absorbance was read at 734 nm at 25 °C on the plate reader. The results were expressed as μM trolox equivalents per milligram dry weight (μM TE/g) of the test samples.

[5] = Automated ORAC assay, peroxyl radical (AAPH); settings: for ORAC Peroxyl: trolox equivalents, AAPH-generated peroxyl radical, fluorescein probe; for ORAC peroxyl radical: scaled × 10^3
Description: (§2) ORAC was carried out according to the previous method with some modifications. […] The analyzer was programmed to record the fluorescence of fluorescein every 2 min after AAPH, or H2O2-Cu^2+ was added. The fluorescein solution and sample were added to the wells of an illuminated 96-well plate, and 12 µL of each of our samples (in stock solution of 1 mg/mL) was combined with 138 µL of a fluorescein working solution followed by the addition of 50 µL of 150 mg of AAPH prepared in situ in 6 mL phosphate buffer. Absorbance was measured using the Fluoroskan spectrum plate reader with the excitation wavelength set at 485 nm and the emission wavelength at 530 nm. A calibration curve was established using a trolox stock solution of concentrations in the range of 83–417 µM (R^2 = 0.9514). The ORAC values were calculated using a regression equation (Y = a + bX + cX^2) between trolox concentration (Y in µM) and the net area under the fluorescence decay curve (X). ORAC values were expressed as micromoles of trolox equivalents (TEs) per milligram of test sample. Samples without a perfect curve were further diluted and the dilution factors were used for the result calculations of such samples.

[6] = Automated ORAC assay, hydroxyl radical (H2O2-Cu2+); settings: trolox equivalents; H2O2-Cu2+-generated hydroxyl radical; fluorescein probe
Description: as §2

[7] = porcine pancreatic elastase, SANA substrate, 410 nm, Table 3 head prints no unit, threshold 100 µg/mL, read-out: ELA (elastase inhibition)

T1 sequence (P00772 27-266): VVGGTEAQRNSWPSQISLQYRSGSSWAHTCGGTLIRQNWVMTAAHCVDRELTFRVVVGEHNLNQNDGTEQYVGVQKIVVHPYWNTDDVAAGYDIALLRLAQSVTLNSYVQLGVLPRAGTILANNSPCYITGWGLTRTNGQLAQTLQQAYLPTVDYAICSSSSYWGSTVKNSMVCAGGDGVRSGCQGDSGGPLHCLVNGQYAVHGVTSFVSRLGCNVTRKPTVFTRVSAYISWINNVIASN

Row | Compound | FRAP [1] | LPO (IC50, inhibition of Fe2+-induced lipid peroxidation) [2] | IC50 [3, 7] | TEAC [4] | ORAC Peroxyl [5] | ORAC Hydroxyl [6] | ORAC peroxyl radical [5] | IC50 [3]
1 | C/C=C(\C)C(=O)Oc1c(O)c(OC)c(O)c2c(=O)c(OC)c(-c3ccccc3)oc12 [Compound C-1, 5,7,8-trihydroxy-3,6-dimethoxyflavone-8-O-2-methyl-2-butanoate] | 1251.45 ± 4.18 µM AAE/g | 13.123 ± 0.34 µg/mL | > 242 µM | 1131.80 ± 6.41 µM TE/g | 3523.51 ± 3.22 µM TE/g | 2.114 ± 4.01 × 10^6 µM TE/g |  | 
2 | COc1c(O)c(OC)c2oc(-c3ccccc3)c(OC)c(=O)c2c1O [Compound C-2, 5,7-dihydroxy-3,6,8-trimethoxyflavone] | 1402.62 ± 5.77 µM AAE/g | 16.421 ± 0.92 µg/mL and 16.42 ± 0.92 µg/mL | > 290 µM | 1276.11 ± 1.32 µM TE/g | 2935.47 ± 0.13 µM TE/g | 2.413 ± 6.20 × 10^6 µM TE/g | 2.935 ± 0.13 × 10^3 µMTE/g | 
3 | COc1c(OC)c(O)c2c(=O)c(OC)c(-c3ccccc3)oc2c1OC [Compound C-3, 5-hydroxy-3,6,7,8-tetramethoxyflavone] | 1314.42 ± 2.42 µM AAE/g | 11.64 ± 1.72 µg/mL | > 279 µM | 1378.10 ± 9.06 µM TE/g | 2431.30 ± 8.63 µM TE/g |  | 2.431 ± 8.63 × 10^3 µMTE/g | 
4 | COc1cc2oc(-c3ccccc3)c(OC)c(=O)c2c(O)c1OC [Compound C-4, 5-hydroxy-3,6,7-trimethoxyflavone] | 1119.44 ± 11.89 µM AAE/g | 14.90 ± 0.06 µg/mL | > 305 µM | 1207.11 ± 7.21 µM TE/g | 2814.51 ± 5.20 µM TE/g | 1.917 ± 3.91 × 10^6 µM TE/g | 2.814 ± 5.20 × 10^3 µMTE/g | 
5 | C=C1CC23CCC4C(C)(C(=O)O)CCCC4(C)C2CCC1C3 (stereo not drawn) [Compound C-5, ent-kaurenoic acid] | 19.66 ± 8.12 µM AAE/g | >100 µg/mL | > 331 µM | 1105.00 ± 3.09 µM TE/g | 364.44 ± 6.71 µM TE/g | 0.429 ± 12.00 × 10^6 µM TE/g |  | 
6 | C=C1C2CCC3C4(C)CCCC(C)(C(=O)O)C4CCC3(C2)C1O (stereo not drawn) [Compound C-7, 15-α-hydroxy-(-)-ent-kaur-16-en-19-oic acid] | 60.90 ± 7.90 µM AAE/g | >100 µg/mL | > 314 µM | 1424.51 ± 0.70 µM TE/g | 93.10 ± 13.68 µM TE/g | 0.845 ± 13.34 × 10^6 µM TE/g |  | 
7 | O=C(O[C@@H]1Cc2c(O)cc(O)cc2O[C@@H]1c1cc(O)c(O)c(O)c1)c1cc(O)c(O)c(O)c1 [EGCG, Epigallocatechin gallate, reference compound] | 3326.45 ± 5.76 µM AAE/g | 0.929 ± 4.11 µg/mL |  | 11545.44 ± 17.28 µM TE/g | 14693.09 ± 5.53 µM TE/g | 3.862 ± 4.65 × 10^6 µM TE/g |  | 
8 | O=c1cc(CO)occ1O [KJA, kojic acid, reference compound] |  |  |  |  |  |  |  | > 704 µM

Source: publication PMC10421400, “Methoxylated Flavonols and ent-Kaurane Diterpenes from the South African Helichrysum rutilans and Their Cosmetic Potential” (Plants, 2023)
